Entries after “also recorded” stand apart in the source; their conditions may differ.
Key:
[1] = system: allodynia induced by sulprostone; experiment: Mouse sulprostone model of allodynia; type: in vivo; conditions: for attenuation of the allodynic response (analgesic activity): up to 1 mg/kg, 15 min before sulprostone 300 ng/kg IP, FIG. 3
Experimental: In this alternative model of chronic pain, allodynia can be induced in mice through intraperitoneal treatment of the animals with 300 ng/kg sulprostone (prostaglandin E2 receptor agonist) in 50% DMSO and in a volume of 5 μl. In this model, the pain response to stroking the flank with a paint brush is scored 8 times over a 35 minute period starting 15 minutes following spinal administration of sulprostone. Minami et al., 57 Pain 217-223 (1994), hereby incorporated by reference herein. Sulprostone treatment alone elicits a score of 12-13 on a 16-point scale.
In either model, the compounds are formulated in d-H2O and given in a volume of 1 ml/kg body weight for intraperitoneal (IP) dosing.
Six mice per group are rendered allodynic by injection of one of the following agents: 300 ng/kg sulprostone in DMSO IP, 100 ng/kg phenylephrine (PE) in dH2O IP, or 100 ng NMDA in DMSO intrathecally (IT). Fifteen minutes before administration of the allodynia-inducing agents, the experimental mice are given 1 mg/kg NB-DNJ. Thirty (30) minutes following administration of NB-DNJ, the allodynic response is monitored as described by brushing the flank of each mouse with a paint brush.
Five to six mice per group are rendered allodynic by injection of 300 ng/kg sulprostone IP. Fifteen minutes before inducement of an allodynic response, experimental mice are given one of the following: 1 mg/kg, 300 μg/kg, and 100 μg/kg NB-DNJ; 1 mg/kg N-butyldeoxymannojirimycin; 1 mg/kg N-5-carboxy-1-deoxynojirimycin; 1 mg/kg N-dodecyldeoxynojirimycin; 1 mg/kg N-ethyl-1-deoxynojirimycin; 1 mg/kg, 300 μg/kg, and 30 μg/kg D-glucaro-delta-lactam; 1 mg/kg 4-O-a-D-glucopyranosylmoranoline; 1 mg/kg nojirimycin bisulfite; 1 mg/kg nojirimycin-1-sulfonic acid; 1 mg/kg N-(n-nonyl)deoxynojirimycin; 1 mg/kg N(7-oxadecyl)deoxynojirimycin; and 1 mg/kg N-(7-oxa-9,9,9-trifluorononyl)deoxynojirimycin. The DMSO vehicle and sulprostone alone are used as controls.
Starting thirty (30) minutes following administration of NB-DNJ, the allodynic response of each mouse was monitored by brushing the flank of the mouse with a paint brush.
Five to six mice per group are rendered allodynic by injection of one of the following: 300 ng/kg sulprostone IP, 100 ng/kg phenylephrine (PE) IP, or 100 ng NMDA intrathecally (IT). Fifteen minutes prior to the induction of allodynia, the mice are given D-glucaro-delta-lactam IP at […], or 1 mg/kg. PE or NMDA-treated mice are given 1 mg/kg D-glucaro-delta-lactam IP.

[2] = system: primary rat brain cortical neurons treated with kainate; experiment: Kainate-induced excitotoxicity in primary cortical neurons (LDH release); type: cell-based
Experimental: (§1) Primary rat brain cortical neurons were cultured as follows. In brief, rat cerebral cortices were removed from brains of the 16 day-old-fetal rats. The neocortices were gently triturated and plated on 24 well plates (300,000 viable cells/cm2) in plating Modified Eagle's Medium (MEM) supplemented with 10% horse serum, 10% fetal calf serum and 2 mM L-glutamine. Cultures were maintained at 37 C in a humidified 5% CO2 atmosphere.
(§2) After 4 days' growth (DIV 4), half of the medium was replaced by a medium identical to the plating medium but lacking calf serum. At DIV4, 10 μM 5-fluoro-2-deoxyuridine was included to each well to halt overgrowth of glia. Mixed cultures of neurons and glia were then fed at DIV7 and DIV11 with MEM plus 5% horse serum previously conditioned by growth with cortical astrocytes for 24 h.
Excitotoxicity was induced in these cells by addition of 50 μM kainate or 20 μM N-methyl-D-aspartate plus 10 μM D-serine to each well.
(§3) Under the experimental conditions used, i.e. after 6 hours addition of excitotoxic agent, 40% toxicity is generally observed and measured by determination of the amount of lactate dehydrogenase (LDH) released into the medium following membrane degradation. Such assay methods are well-known; a kit for conducting a homogeneous form of the LDH assay format is sold by Promega under the name CytoTox ONE® Homogenous Membrane Integrity Assay. Overall cell injury was assessed microscopically under phase-contrast optics or by measuring amount of LDH released into the bathing medium 24 hr after neurotoxic insults (see, e.g., Koh and Choi, J. NEUROSCI. METHODS 20: 83-90, 1987), hereby incorporated by reference herein.
[…] The final results are normalized optical density (OD) values (treated cells/untreated control cells), where a value of 1 represents 100% neuronal survival and a value of 0.6 represents 60% survival.

[3] = system: primary rat brain cortical neurons treated with NMDA plus D-serine; experiment: NMDA/serine-induced excitotoxicity in primary cortical neurons (LDH release); type: cell-based; conditions: 20 μM NMDA plus 10 μM D-serine, 3 h or 16 h preincubation; FIGS. 8A and 8B
Experimental: as §1
as §2, with “h. […]” for “h.”
as §3, with “Such assay methods are well-known; a kit for conducting a homogeneous form of the LDH assay format is sold by Promega under the name CytoTox ONE® Homogenous Membrane Integrity Assay.” left out, “herein. […]” for “herein.”

[4] = system: primary rat brain cortical neurons; experiment: Intrinsic cytotoxicity in neuronal cultures; type: cell-based
Experimental: as §1, §2
as §3, with “Such assay methods are well-known; a kit for conducting a homogeneous form of the LDH assay format is sold by Promega under the name CytoTox ONE® Homogenous Membrane Integrity Assay.” left out, “herein. […]” for “herein.”

[5] = cited from earlier work

Compound	attenuation of the allodynic response (analgesic activity) [1]	reversal of the allodynic response ([1]; 1 mg/kg given 15 min before sulprostone 300 ng/kg IP, FIG. 1)	attenuation of kainate-induced excitotoxicity ([2]; 50 μM kainate, compound added without pre-incubation, FIG. 7A)	neuronal death ([2]; kainate-induced toxicity, various concentrations)	neuronal death [3]	intrinsic cytotoxicity [4]	aqueous solubility [5]
O=C(O)[C@H]1NC(=O)[C@H](O)[C@@H](O)[C@@H]1O [D-glucaro-delta-lactam]	attenuate the allodynic response						
CCCCN1C[C@H](O)[C@@H](O)[C@H](O)[C@H]1CO [NB-DNJ, N-butyl-1-deoxy-nojirimycin]	attenuate the allodynic response	significant reversal	attenuation of kainate-induced excitotoxicity; also recorded: active without any preincubation	reduced neuronal death in a dose-dependent manner	reduced neuronal death in a dose-dependent manner	do not show any significant intrinsic cytotoxicity	greater than 1000 mg/ml

Reference: US7884115B2, “Methods and compositions for the treatment of pain and other neurological conditions” (Allergan, Inc., priority 2004, dated 2011)
